Patent US11395489B2, “Microbiocidal picolinamide derivatives” (Syngenta Participations AG, priority 2017, dated 2022)

Experiments:
[1] = tested on: Botryotinia fuckeliana (Botrytis cinerea); assay: Botryotinia fuckeliana (Botrytis cinerea) / liquid culture (Gray Mould); format: cell-based; conditions: 72 h, 200 ppm in the formulation, inhibition of growth determined photometrically 3-4 days after application, read-out: disease control
Protocol: (§1) Botryotinia fuckeliana (Botrytis cinerea)/Liquid Culture (Gray Mould) Conidia of the fungus from cryogenic storage are directly mixed into nutrient broth (Vogels broth). After placing a (DMSO) solution of test compound into a microtiter plate (96-well format), the nutrient broth containing the fungal spores is added. The test plates are incubated at 24° C. and the inhibition of growth is determined photometrically 3-4 days after application.

[2] = tested on: Mycosphaerella arachidis (Cercospora arachidicola); assay: Mycosphaerella arachidis (Cercospora arachidicola) / liquid culture (Early Leaf Spot); format: cell-based; conditions: 96 h, 200 ppm in the formulation, inhibition of growth determined photometrically 4-5 days after application, read-out: disease control
Protocol: as §1, with “Mycosphaerella arachidis (Cercospora arachidicola)/Liquid” for “Botryotinia fuckeliana (Botrytis cinerea)/Liquid”, “(Early Leaf Spot)” for “(Gray Mould)”, “(PDB potato dextrose” for “(Vogels”, “4-5” for “3-4”

[3] = tested on: Phaeosphaeria Nodorum (Septoria nodorum); assay: Phaeosphaeria nodorum (Septoria nodorum) / wheat / leaf disc preventative (Glume Blotch); format: in vivo; conditions: Parastagonospora nodorum, foliar, 200 ppm in the formulation, compared to untreated, 5-7 days after application, read-out: disease control
Protocol: Phaeosphaeria Nodorum (Septoria nodorum)/Wheat/Leaf Disc Preventative (Glume Blotch) Wheat leaf segments cv. Kanzler are placed on agar in a multiwell plate (24-well format) and sprayed with the formulated test compound diluted in water. The leaf disks are inoculated with a spore suspension of the fungus 2 days after application. The inoculated test leaf disks are incubated at 20° C. and 75% rh under a light regime of 12 h light/12 h darkness in a climate cabinet and the activity of a compound is assessed as percent disease control compared to untreated when an appropriate level of disease damage appears in untreated check leaf disks (5-7 days after application).

[4] = tested on: Monocraphella nivalis (Microdochium nivale); assay: Monocraphella nivalis (Microdochium nivale) / liquid culture (Foot Rot Cereals); format: cell-based; conditions: 96 h, 200 ppm in the formulation, inhibition of growth determined photometrically 4-5 days after application, read-out: disease control
Protocol: as §1, with “Monocraphella nivalis (Microdochium nivale)/Liquid” for “Botryotinia fuckeliana (Botrytis cinerea)/Liquid”, “(Foot Rot Cereals)” for “(Gray Mould)”, “(PDB potato dextrose” for “(Vogels”, “4-5” for “3-4”

[5] = tested on: Puccinia recondita f. Sp. Tritici; assay: Puccinia recondita f. sp. tritici / wheat / leaf disc preventative (Brown Rust); format: in vivo; conditions: foliar, 168 h, 200 ppm in the formulation, compared to untreated, 7-9 days after application, read-out: disease control
[6] = tested on: Glomerella lacenarium (Colletotrichum lacenarium); assay: Glomerella lacenarium (Colletotrichum lacenarium) / liquid culture (Anthracnose); format: cell-based; conditions: 200 ppm in the formulation, inhibition of growth measured photometrically 3-4 days after application, read-out: disease control
Protocol: as §1, with “Glomerella lacenarium (Colletotrichum lacenarium)/Liquid” for “Botryotinia fuckeliana (Botrytis cinerea)/Liquid”, “(Anthracnose)” for “(Gray Mould)”, “(PDB potato dextrose” for “(Vogels”, “measured” for “determined”

[7] = tested on: Mycosphaerella Raminicola (Septoria tritici); assay: Mycosphaerella Raminicola (Septoria tritici) / liquid culture (Septoria Blotch); format: cell-based; conditions: 200 ppm in the formulation, inhibition of growth determined photometrically 4 to 5 days after application, read-out: disease control
Protocol: as §1, with “Mycosphaerella Raminicola (Septoria tritici)/Liquid” for “Botryotinia fuckeliana (Botrytis cinerea)/Liquid”, “(Septoria Blotch)” for “(Gray Mould)”, “(PDB potato dextrose” for “(Vogels”, “4 to 5” for “3-4”

[8] = tested on: Magnaporthe risea (Pyricularia Oryzae); assay: whole plant or invertebrate; format: in vivo; conditions: foliar, read-out: disease control

COc1ccnc(C(=O)N[C@@H](C)C(=O)OC(C)C2(c3ccccc3)CC2c2ccccc2)c1O (stereo partly drawn) [I.a.010, 1-(1,2-diphenylcyclo-propyl)ethyl (2S)-2-[(3-hydroxy-4-methoxy-pyridine-2-carbonyl)-amino]propanoate]
≥ 80%: inhibition of growth at 200 ppm [1] | inhibition of growth at 200 ppm [2] | pest or weed control at 200 ppm [3] | inhibition of growth at 200 ppm [4] | pest or weed control at 200 ppm [5] | inhibition of growth at 200 ppm [6] | inhibition of growth at 200 ppm [7] | pest or weed control at 200 ppm [8]

COc1ccnc(C(=O)N[C@@H](C)C(=O)OC(C)C2(c3ccc(Cl)cc3)CCCCC2)c1O (stereo partly drawn) [I.k.015, 1-[1-(4-chlorophenyl)-cyclohexyl]ethyl (2S)-2-[(3-hydroxy-4-methoxy-pyridine-2-carbonyl)amino]propanoate]
≥ 80%: inhibition of growth at 200 ppm [1] | inhibition of growth at 200 ppm [2] | pest or weed control at 200 ppm [3] | inhibition of growth at 200 ppm [4] | pest or weed control at 200 ppm [5] | inhibition of growth at 200 ppm [6] | inhibition of growth at 200 ppm [7]

COc1ccnc(C(=O)N[C@@H](C)C(=O)OC(C)C(C)(C)c2cc(F)ccc2F)c1O (stereo partly drawn) [I.ah.001, [2-(2,5-difluoro-phenyl)-1,2-dimethyl-propyl] (2S)-2-[(3-hydroxy-4-methoxy-pyridine-2-carbonyl)-amino]propanoate]
≥ 80%: inhibition of growth at 200 ppm [2] | pest or weed control at 200 ppm [3] | inhibition of growth at 200 ppm [4] | pest or weed control at 200 ppm [5] | inhibition of growth at 200 ppm [6] | inhibition of growth at 200 ppm [7] | pest or weed control at 200 ppm [8]

COc1ccnc(C(=O)N[C@@H](C)C(=O)OC(C)C2(c3ccc(Cl)cc3)CCCCC2)c1OC(C)=O (stereo partly drawn) [I.k.075, 1-[1-(4-chlorophenyl)-cyclohexyl]ethyl (2S)-2-[(3-acetoxy-4-methoxy-pyridine-2-carbonyl)-amino]propanoate]
≥ 80%: inhibition of growth at 200 ppm [2] | pest or weed control at 200 ppm [3] | pest or weed control at 200 ppm [5] | inhibition of growth at 200 ppm [6] | inhibition of growth at 200 ppm [7] | pest or weed control at 200 ppm [8]

COc1ccnc(C(=O)N[C@@H](C)C(=O)OC(C)C2(c3ccccc3)CCCCC2)c1O (stereo partly drawn) [I.a.015, 1-(1-phenylcyclohexyl)-ethyl (2S)-2-[(3-hydroxy-4-methoxy-pyridine-2-carbonyl)amino]propanoate]
≥ 80%: inhibition of growth at 200 ppm [1] | inhibition of growth at 200 ppm [2] | pest or weed control at 200 ppm [3] | inhibition of growth at 200 ppm [4] | pest or weed control at 200 ppm [5] | inhibition of growth at 200 ppm [6] | inhibition of growth at 200 ppm [7]

COc1ccnc(C(=O)N[C@@H](C)C(=O)OC(C)C(C)(C)c2ccc(Br)cc2)c1O (stereo partly drawn) [I.m.001, [2-(4-bromophenyl)-1,2-dimethyl-propyl] (2S)-2-[(3-hydroxy-4-methoxy-pyridine-2-carbonyl)amino]propanoate]
≥ 80%: inhibition of growth at 200 ppm [1] | inhibition of growth at 200 ppm [2] | pest or weed control at 200 ppm [3] | inhibition of growth at 200 ppm [4] | pest or weed control at 200 ppm [5] | inhibition of growth at 200 ppm [6] | inhibition of growth at 200 ppm [7]

COc1ccnc(C(=O)N[C@@H](C)C(=O)OC(C)C2(c3ccc(Cl)cc3)CCC2)c1O (stereo partly drawn) [I.k.012, 1-[1-(4-chlorophenyl)-cyclobutyl]ethyl (2S)-2-((3-hydroxy-4-methoxy-pyridine-2-carbonyl)-amino]propanoate]
≥ 80%: inhibition of growth at 200 ppm [1] | inhibition of growth at 200 ppm [2] | pest or weed control at 200 ppm [3] | inhibition of growth at 200 ppm [4] | pest or weed control at 200 ppm [5] | inhibition of growth at 200 ppm [6] | inhibition of growth at 200 ppm [7] | pest or weed control at 200 ppm [8]

COc1ccnc(C(=O)N[C@@H](C)C(=O)OC(C)C2(c3cccc4ccccc34)CC2)c1OC(C)=O (stereo partly drawn) [I.v.066, 1-[1-(1-naphthyl)cyclo-propyl]ethyl (2S)-2-[(3-acetoxy-4-methoxy-pyridine-2-carbonyl)-amino]propanoate]
≥ 80%: inhibition of growth at 200 ppm [1] | inhibition of growth at 200 ppm [2] | pest or weed control at 200 ppm [3] | inhibition of growth at 200 ppm [4] | pest or weed control at 200 ppm [5] | inhibition of growth at 200 ppm [6] | inhibition of growth at 200 ppm [7] | pest or weed control at 200 ppm [8]
